Test results from ChEMBL document CHEMBL3885861, “Open TG-GATES”.

Species: Rattus norvegicus
Assay: Open TG-GATES - Regimen: Single
Format: toxicity, organism-based, Sprague-Dawley
Parameters: regimen Single, gender Male, age 6 weeks
Conditions: in vivo, po, 0 mg/kg, route gavage, dose level Control; for APTT / Bas / Eos / Fbg / Hb / Ht / Lym / MCH / MCHC / MCV / Mono / Neu / PT / Plat / RBC / Ret / WBC: tissue Blood; for KIDNEY_L / KIDNEY_R / KIDNEY_TOTAL: tissue Kidney; for LIVER: tissue Liver; for A/G / ALP / ALT / AST / BUN / CRE / Ca / Cl / DBIL / GLC / IP / K / LDH / Na / PL / RALB / TBIL / TC / TG / TP / gamma-GTP: tissue Plasma

CC(C)(S)[C@@H](N)C(=O)O [PENICILLAMINE]
TERMINAL_BW (3 h): 202 g
APTT (3 h): 15 s
Bas (3 h): 0%
Eos (3 h): 1%
Fbg (3 h): 302 mg/dL
Hb (3 h): 13.8 g/dL
Ht (3 h): 42.5%
Lym (3 h): 79.4%
MCH (3 h): 21.6 pg
MCHC (3 h): 32.5%
MCV (3 h): 66.4 fL
Mono (3 h): 2.8%
Neu (3 h): 15.8%
PT (3 h): 14.4 s
Plat (3 h): 123.9 x10_4/uL
RBC (3 h): 639.6 x10_4/ul
Ret (3 h): 9.1%
WBC (3 h): 90 x10_2/uL
KIDNEY_L (3 h): 0.9 g
KIDNEY_R (3 h): 0.9 g
KIDNEY_TOTAL (3 h): 1.7 g
LIVER (3 h): 9 g
A/G (3 h): 0.9
ALP (3 h): 1505 IU/L
ALT (3 h): 42.2 IU/L
AST (3 h): 75.2 IU/L
BUN (3 h): 10 mg/dL
CRE (3 h): 0.2 mg/dL
Ca (3 h): 11.1 mg/dL
Cl (3 h): 106.2 meq/L
DBIL (3 h): 0.014 mg/dL
GLC (3 h): 178.8 mg/dL
IP (3 h): 8.4 mg/dL
K (3 h): 4.4 meq/L
LDH (3 h): 74.6 IU/L
Na (3 h): 141.8 meq/L
PL (3 h): 137.4 mg/dL
RALB (3 h): 2.6 g/dL
TBIL (3 h): 0.032 mg/dL
TC (3 h): 71.4 mg/dL
TG (3 h): 72.6 mg/dL
TP (3 h): 5.3 g/dL
gamma-GTP (3 h): 1.2 IU/L
TERMINAL_BW (6 h): 201.2 g
APTT (6 h): 16.2 s
Bas (6 h): 0%
Eos (6 h): 1%
Fbg (6 h): 301.2 mg/dL
Hb (6 h): 13.3 g/dL
Ht (6 h): 41.1%
Lym (6 h): 79.2%
MCH (6 h): 20.6 pg
MCHC (6 h): 32.4%
MCV (6 h): 63.7 fL
Mono (6 h): 2.6%
Neu (6 h): 16.2%
PT (6 h): 14.3 s
Plat (6 h): 130.7 x10_4/uL
RBC (6 h): 646.2 x10_4/ul
Ret (6 h): 8.8%
WBC (6 h): 87.2 x10_2/uL
KIDNEY_L (6 h): 0.9 g
KIDNEY_R (6 h): 0.9 g
KIDNEY_TOTAL (6 h): 1.7 g
LIVER (6 h): 8.5 g
A/G (6 h): 0.9
ALP (6 h): 1217 IU/L
ALT (6 h): 34.4 IU/L
AST (6 h): 70.6 IU/L
BUN (6 h): 9.6 mg/dL
CRE (6 h): 0.2 mg/dL
Ca (6 h): 11 mg/dL
Cl (6 h): 106 meq/L
DBIL (6 h): 0.008 mg/dL
GLC (6 h): 175.8 mg/dL
IP (6 h): 8.9 mg/dL
K (6 h): 4.3 meq/L
LDH (6 h): 76 IU/L
Na (6 h): 142.8 meq/L
PL (6 h): 135 mg/dL
RALB (6 h): 2.5 g/dL
TBIL (6 h): 0.038 mg/dL
TC (6 h): 75.8 mg/dL
TG (6 h): 52.4 mg/dL
TP (6 h): 5.3 g/dL
gamma-GTP (6 h): 1 IU/L
TERMINAL_BW (9 h): 199.9 g
APTT (9 h): 16.9 s
Bas (9 h): 0%
Eos (9 h): 0.6%
Fbg (9 h): 300 mg/dL
Hb (9 h): 13.5 g/dL
Ht (9 h): 41.9%
Lym (9 h): 80%
MCH (9 h): 21.1 pg
MCHC (9 h): 32.3%
MCV (9 h): 65.3 fL
Mono (9 h): 2.6%
Neu (9 h): 16.2%
PT (9 h): 14.5 s
Plat (9 h): 126.8 x10_4/uL
RBC (9 h): 641.4 x10_4/ul
Ret (9 h): 9.1%
WBC (9 h): 92.7 x10_2/uL
KIDNEY_L (9 h): 0.9 g
KIDNEY_R (9 h): 0.9 g
KIDNEY_TOTAL (9 h): 1.8 g
LIVER (9 h): 8.1 g
A/G (9 h): 0.9
ALP (9 h): 1372.8 IU/L
ALT (9 h): 40.6 IU/L
AST (9 h): 72 IU/L
BUN (9 h): 8.6 mg/dL
CRE (9 h): 0.1 mg/dL
Ca (9 h): 10.7 mg/dL
Cl (9 h): 106.4 meq/L
DBIL (9 h): 0.006 mg/dL
GLC (9 h): 187.4 mg/dL
IP (9 h): 9.8 mg/dL
K (9 h): 4.2 meq/L
LDH (9 h): 68.4 IU/L
Na (9 h): 143.6 meq/L
PL (9 h): 144 mg/dL
RALB (9 h): 2.6 g/dL
TBIL (9 h): 0.034 mg/dL
TC (9 h): 82 mg/dL
TG (9 h): 55 mg/dL
TP (9 h): 5.4 g/dL
gamma-GTP (9 h): 1.2 IU/L
TERMINAL_BW (24 h): 214.6 g
APTT (24 h): 16.2 s
Bas (24 h): 0%
Eos (24 h): 1%
Fbg (24 h): 317.2 mg/dL
Hb (24 h): 13.3 g/dL
Ht (24 h): 40.9%
Lym (24 h): 76.8%
MCH (24 h): 21.3 pg
MCHC (24 h): 32.6%
MCV (24 h): 65.2 fL
Mono (24 h): 3.6%
Neu (24 h): 17.6%
PT (24 h): 13.9 s
Plat (24 h): 125.8 x10_4/uL
RBC (24 h): 626.4 x10_4/ul
Ret (24 h): 8.2%
WBC (24 h): 92.6 x10_2/uL
KIDNEY_L (24 h): 0.9 g
KIDNEY_R (24 h): 0.9 g
KIDNEY_TOTAL (24 h): 1.8 g
LIVER (24 h): 9.5 g
A/G (24 h): 0.9
ALP (24 h): 1418.8 IU/L
ALT (24 h): 43 IU/L
AST (24 h): 74.6 IU/L
BUN (24 h): 13.2 mg/dL
CRE (24 h): 0.2 mg/dL
Ca (24 h): 11.1 mg/dL
Cl (24 h): 105.8 meq/L
DBIL (24 h): 0.01 mg/dL
GLC (24 h): 174.8 mg/dL
IP (24 h): 7.2 mg/dL
K (24 h): 4 meq/L
LDH (24 h): 80 IU/L
Na (24 h): 143.4 meq/L
PL (24 h): 160.4 mg/dL
RALB (24 h): 2.6 g/dL
TBIL (24 h): 0.026 mg/dL
TC (24 h): 83 mg/dL
TG (24 h): 115.6 mg/dL
TP (24 h): 5.5 g/dL
gamma-GTP (24 h): 1 IU/L
